# Test system: patients with unresectable HCC
# Test: Open-label phase 3 study, safety and side-effect profile (CTCAE v4.0)
# Description: Randomization was stratified according to region (Asia-Pacific or Western regions), macroscopic portal vein invasion and/or extrahepatic spread (yes or no), Eastern Cooperative Oncology Group performance status (0 or 1), and body weight (<60 kg or ≥60 kg).
# Safety assessments included recording of vital signs, hematologic and biochemical laboratory testing, urinalysis, and electrocardiography.
structure (smiles),measurement,setting,value
"COc1cc2nccc(Oc3ccc(NC(=O)NC4CC4)c(Cl)c3)c2cc1C(N)=O [Lenvatinib, 4-(3-chloro-4(cyclopropylaminocarbonyl)aminophenoxy)-7-methoxy-6-quinolinecarboxamide]",TEAE: Decreased appetite,8 mg per day,33.1%
same,TEAE: Diarrhea,8 mg per day,35.1%
same,TEAE: Hypertension,8 mg per day,43.0%
same,TEAE: decreased weight,8 mg per day,28.5%
same,Dose reduction/interruption: Abdominal pain,8 mg starting dose,2 (1.3) n (%)
same,Dose reduction/interruption: Abdominal pain upper,8 mg starting dose,2 (1.3) n (%)
same,Dose reduction/interruption: Alanine aminotransferase increased,8 mg starting dose,2 (1.3) n (%)
same,Dose reduction/interruption: Anemia,8 mg starting dose,2 (1.3) n (%)
same,Dose reduction/interruption: Ascites,8 mg starting dose,3 (2.0) n (%)
same,Dose reduction/interruption: Aspartate aminotransferase increased,8 mg starting dose,4 (2.6) n (%)
same,Dose reduction/interruption: Asthenia,8 mg starting dose,3 (2.0) n (%)
same,Dose reduction/interruption: Blood and lymphatic system disorders,8 mg starting dose,5 (3.3) n (%)
same,Dose reduction/interruption: Blood bilirubin increased,8 mg starting dose,8 (5.3) n (%)
same,Dose reduction/interruption: Decreased appetite,8 mg starting dose,15 (9.9) n (%)
same,Dose reduction/interruption: Dehydration,8 mg starting dose,3 (2.0) n (%)
same,Dose reduction/interruption: Diarrhea,8 mg starting dose,8 (5.3) n (%)
same,Dose reduction/interruption: Dyspnea,8 mg starting dose,2 (1.3) n (%)
same,Dose reduction/interruption: Edema peripheral,8 mg starting dose,2 (1.3) n (%)
same,Dose reduction/interruption: Esophageal varices hemorrhage,8 mg starting dose,0 (0.0) n (%)
same,Dose reduction/interruption: Fatigue,8 mg starting dose,5 (3.3) n (%)
same,Dose reduction/interruption: Gamma-glutamyltransferase increased,8 mg starting dose,1 (0.7) n (%)
same,Dose reduction/interruption: Gastrointestinal disorders,8 mg starting dose,22 (14.6) n (%)
same,Dose reduction/interruption: General disorders and administration site conditions,8 mg starting dose,17 (11.3) n (%)
same,Dose reduction/interruption: Hepatic encephalopathy,8 mg starting dose,4 (2.6) n (%)
same,Dose reduction/interruption: Hepatic function abnormal,8 mg starting dose,0 (0.0) n (%)
same,Dose reduction/interruption: Hepatobiliary disorders,8 mg starting dose,2 (1.3) n (%)
same,Dose reduction/interruption: Hypertension,8 mg starting dose,3 (2.0) n (%)
same,Dose reduction/interruption: Hyponatremia,8 mg starting dose,2 (1.3) n (%)
same,Dose reduction/interruption: Investigations,8 mg starting dose,24 (15.9) n (%)
same,Dose reduction/interruption: Malaise,8 mg starting dose,2 (1.3) n (%)
same,Dose reduction/interruption: Metabolism and nutrition disorders,8 mg starting dose,21 (13.9) n (%)
same,Dose reduction/interruption: Musculoskeletal and connective tissue disorders,8 mg starting dose,4 (2.6) n (%)
same,Dose reduction/interruption: Myalgia,8 mg starting dose,1 (0.7) n (%)
same,Dose reduction/interruption: Nausea,8 mg starting dose,2 (1.3) n (%)
same,Dose reduction/interruption: Nervous system disorders,8 mg starting dose,7 (4.6) n (%)
same,Dose reduction/interruption: Neutropenia,8 mg starting dose,0 (0.0) n (%)
same,Dose reduction/interruption: Neutrophil count decreased,8 mg starting dose,4 (2.6) n (%)
same,Dose reduction/interruption: Palmar-plantar erythrodysesthesia syndrome,8 mg starting dose,4 (2.6) n (%)
same,Dose reduction/interruption: Platelet count decreased,8 mg starting dose,9 (6.0) n (%)
same,Dose reduction/interruption: Proteinuria,8 mg starting dose,4 (2.6) n (%)
same,Dose reduction/interruption: Pyrexia,8 mg starting dose,4 (2.6) n (%)
same,Dose reduction/interruption: Rash,8 mg starting dose,0 (0.0) n (%)
same,Dose reduction/interruption: Rash maculo-papular,8 mg starting dose,0 (0.0) n (%)
same,Dose reduction/interruption: Renal and urinary disorders,8 mg starting dose,5 (3.3) n (%)
same,"Dose reduction/interruption: Respiratory, thoracic and mediastinal disorders",8 mg starting dose,4 (2.6) n (%)
same,Dose reduction/interruption: Skin and subcutaneous tissue disorders,8 mg starting dose,5 (3.3) n (%)
same,Dose reduction/interruption: Stomatitis,8 mg starting dose,2 (1.3) n (%)
same,Dose reduction/interruption: Thrombocytopenia,8 mg starting dose,2 (1.3) n (%)
same,Dose reduction/interruption: Vascular disorders,8 mg starting dose,3 (2.0) n (%)
same,Dose reduction/interruption: Vomiting,8 mg starting dose,1 (0.7) n (%)
same,Dose reduction/interruption: Weight decreased,8 mg starting dose,3 (2.0) n (%)
same,Dose reduction/interruption: White blood cell count decreased,8 mg starting dose,3 (2.0) n (%)
same,Subjects with Any TEAEs,8 mg starting dose,151 (100.0) n (%)
same,Subjects with any TEAEs leading to Dose Reduction or Interruption,8 mg starting dose,81 (53.6) n (%)
same,TEAE: Abdominal pain,8 mg starting dose,19 (12.6) n (%)
same,TEAE: Abdominal pain upper,8 mg starting dose,21 (13.9) n (%)
same,TEAE: Alanine aminotransferase increased,8 mg starting dose,17 (11.3) n (%)
same,TEAE: Alopecia,8 mg starting dose,5 (3.3) n (%)
same,TEAE: Ascites,8 mg starting dose,21 (13.9) n (%)
same,TEAE: Aspartate aminotransferase increased,8 mg starting dose,21 (13.9) n (%)
same,TEAE: Asthenia,8 mg starting dose,14 (9.3) n (%)
same,TEAE: Back pain,8 mg starting dose,11 (7.3) n (%)
same,TEAE: Blood bilirubin increased,8 mg starting dose,23 (15.2) n (%)
same,TEAE: Constipation,8 mg starting dose,19 (12.6) n (%)
same,TEAE: Decreased appetite,8 mg starting dose,50 (33.1) n (%)
same,TEAE: Diarrhea,8 mg starting dose,53 (35.1) n (%)
same,TEAE: Dysphonia,8 mg starting dose,28 (18.5) n (%)
same,TEAE: Edema peripheral,8 mg starting dose,23 (15.2) n (%)
same,TEAE: Fatigue,8 mg starting dose,42 (27.8) n (%)
same,TEAE: Hypertension,8 mg starting dose,65 (43.0) n (%)
same,TEAE: Hypothyroidism,8 mg starting dose,25 (16.6) n (%)
same,TEAE: Nausea,8 mg starting dose,24 (15.9) n (%)
same,TEAE: Palmar-plantar erythrodysesthesia syndrome,8 mg starting dose,35 (23.2) n (%)
same,TEAE: Platelet count decreased,8 mg starting dose,26 (17.2) n (%)
same,TEAE: Proteinuria,8 mg starting dose,37 (24.5) n (%)
same,TEAE: Pyrexia,8 mg starting dose,24 (15.9) n (%)
same,TEAE: Rash,8 mg starting dose,18 (11.9) n (%)
same,TEAE: Stomatitis,8 mg starting dose,11 (7.3) n (%)
same,TEAE: Vomiting,8 mg starting dose,22 (14.6) n (%)
same,TEAE: Weight decreased,8 mg starting dose,43 (28.5) n (%)
same,TEAE: Decreased appetite,12 mg per day,34.5%
same,TEAE: Diarrhea,12 mg per day,40.3%
same,TEAE: Hypertension,12 mg per day,41.8%
same,TEAE: decreased weight,12 mg per day,32.0%
same,Dose reduction/interruption: Abdominal pain,12 mg starting dose,4 (1.2) n (%)
same,Dose reduction/interruption: Abdominal pain upper,12 mg starting dose,3 (0.9) n (%)
same,Dose reduction/interruption: Alanine aminotransferase increased,12 mg starting dose,4 (1.2) n (%)
same,Dose reduction/interruption: Anemia,12 mg starting dose,1 (0.3) n (%)
same,Dose reduction/interruption: Ascites,12 mg starting dose,7 (2.2) n (%)
same,Dose reduction/interruption: Aspartate aminotransferase increased,12 mg starting dose,5 (1.5) n (%)
same,Dose reduction/interruption: Asthenia,12 mg starting dose,13 (4.0) n (%)
same,Dose reduction/interruption: Blood and lymphatic system disorders,12 mg starting dose,11 (3.4) n (%)
same,Dose reduction/interruption: Blood bilirubin increased,12 mg starting dose,12 (3.7) n (%)
same,Dose reduction/interruption: Decreased appetite,12 mg starting dose,21 (6.5) n (%)
same,Dose reduction/interruption: Dehydration,12 mg starting dose,3 (0.9) n (%)
same,Dose reduction/interruption: Diarrhea,12 mg starting dose,28 (8.6) n (%)
same,Dose reduction/interruption: Dyspnea,12 mg starting dose,6 (1.8) n (%)
same,Dose reduction/interruption: Edema peripheral,12 mg starting dose,4 (1.2) n (%)
same,Dose reduction/interruption: Esophageal varices hemorrhage,12 mg starting dose,5 (1.5) n (%)
same,Dose reduction/interruption: Fatigue,12 mg starting dose,22 (6.8) n (%)
same,Dose reduction/interruption: Gamma-glutamyltransferase increased,12 mg starting dose,6 (1.8) n (%)
same,Dose reduction/interruption: Gastrointestinal disorders,12 mg starting dose,65 (20.0) n (%)
same,Dose reduction/interruption: General disorders and administration site conditions,12 mg starting dose,50 (15.4) n (%)
same,Dose reduction/interruption: Hepatic encephalopathy,12 mg starting dose,16 (4.9) n (%)
same,Dose reduction/interruption: Hepatic function abnormal,12 mg starting dose,2 (0.6) n (%)
same,Dose reduction/interruption: Hepatobiliary disorders,12 mg starting dose,25 (7.7) n (%)
same,Dose reduction/interruption: Hypertension,12 mg starting dose,26 (8.0) n (%)
same,Dose reduction/interruption: Hyponatremia,12 mg starting dose,3 (0.9) n (%)
same,Dose reduction/interruption: Investigations,12 mg starting dose,57 (17.5) n (%)
same,Dose reduction/interruption: Malaise,12 mg starting dose,3 (0.9) n (%)
same,Dose reduction/interruption: Metabolism and nutrition disorders,12 mg starting dose,31 (9.5) n (%)
same,Dose reduction/interruption: Musculoskeletal and connective tissue disorders,12 mg starting dose,14 (4.3) n (%)
same,Dose reduction/interruption: Myalgia,12 mg starting dose,4 (1.2) n (%)
same,Dose reduction/interruption: Nausea,12 mg starting dose,14 (4.3) n (%)
same,Dose reduction/interruption: Nervous system disorders,12 mg starting dose,28 (8.6) n (%)
same,Dose reduction/interruption: Neutropenia,12 mg starting dose,6 (1.8) n (%)
same,Dose reduction/interruption: Neutrophil count decreased,12 mg starting dose,7 (2.2) n (%)
same,Dose reduction/interruption: Palmar-plantar erythrodysesthesia syndrome,12 mg starting dose,21 (6.5) n (%)
same,Dose reduction/interruption: Platelet count decreased,12 mg starting dose,13 (4.0) n (%)
same,Dose reduction/interruption: Proteinuria,12 mg starting dose,29 (8.9) n (%)
same,Dose reduction/interruption: Pyrexia,12 mg starting dose,8 (2.5) n (%)
same,Dose reduction/interruption: Rash,12 mg starting dose,2 (0.6) n (%)
same,Dose reduction/interruption: Rash maculo-papular,12 mg starting dose,0 (0.0) n (%)
same,Dose reduction/interruption: Renal and urinary disorders,12 mg starting dose,35 (10.8) n (%)
same,"Dose reduction/interruption: Respiratory, thoracic and mediastinal disorders",12 mg starting dose,12 (3.7) n (%)
same,Dose reduction/interruption: Skin and subcutaneous tissue disorders,12 mg starting dose,23 (7.1) n (%)
same,Dose reduction/interruption: Stomatitis,12 mg starting dose,4 (1.2) n (%)
same,Dose reduction/interruption: Thrombocytopenia,12 mg starting dose,4 (1.2) n (%)
same,Dose reduction/interruption: Vascular disorders,12 mg starting dose,30 (9.2) n (%)
same,Dose reduction/interruption: Vomiting,12 mg starting dose,11 (3.4) n (%)
same,Dose reduction/interruption: Weight decreased,12 mg starting dose,17 (5.2) n (%)
same,Dose reduction/interruption: White blood cell count decreased,12 mg starting dose,3 (0.9) n (%)
same,Subjects with Any TEAEs,12 mg starting dose,319 (98.2) n (%)
same,Subjects with any TEAEs leading to Dose Reduction or Interruption,12 mg starting dose,213 (65.5) n (%)
same,TEAE: Abdominal pain,12 mg starting dose,62 (19.1) n (%)
same,TEAE: Abdominal pain upper,12 mg starting dose,37 (11.4) n (%)
same,TEAE: Alanine aminotransferase increased,12 mg starting dose,36 (11.1) n (%)

# — patent publication US12226409B2, “Treatment of hepatocellular carcinoma” (Eisai R&D Management Co., Ltd., priority 2017, dated 2025)
